Results as given in patent US20210069135A1, “THERAPEUTIC APPROACHES FOR TREATING EPILEPSY AND RELATED DISORDERS THROUGH REDUCTION OF EPILEPTOGENESIS” (PHARNEXT, priority 2012, published 2021).
Entries after “also recorded” stand apart in the source; their conditions may differ.

Columns and labels:
[1] = system: PTZ-induced seizures in mice; assay: Pentylenetetrazol (PTZ)-induced seizure in mice model; format: in vivo, CD-1 mice
Experimental: Four to five week old male CD-1 mice of about 20 g (Janvier; Le Genest St Isle—France) were acclimatized to the environment for one week before the experiment.
They were group-housed (5-10 mice per cage) and maintained in a room with controlled temperature (21-22° C.) and a reversed light-dark cycle (12 h/12 h; lights on: 17:30-05:30; lights off: 05:30-17:30) with food and water available ad libitum.
PTZ-induced seizures in mice are an accepted in vivo model for the screening of antiepileptic drugs. PTZ is a blocker of the chloride ionophore complex to the GABAA receptor that has […] effects after repeated or single dose administration and also affects several neurotransmitter systems, such as the GABAergic and glutamatergic systems. Seizures were induced by administration of 100 mg/kg (subcutaneously) of PTZ. Levetiracetam (500 mg/kg), used as an internal positive control, was administered 60 min before the PTZ injection. Drugs of the invention were injected per os 2 h before PTZ administration. Acamprosate calcium (two molecules of acamprosate for a calcium ion) was tested at three different doses.
As already stated, 100 mg/kg PTZ were injected subcutaneously and the animals were then observed for 1 h after injection. The latencies for clonic seizures, tonic seizures, and death were monitored. Clonic seizures consist in rhythmic contractions of forelimbs and/or hindlimbs. Tonic seizures consist in rigid extension of the forelimbs and/or hindlimbs.
Analysis of variance (ANOVA) was performed on the result data. Fisher's Protected Least Significant Difference was used for pairwise comparisons. Statistical difference was assessed by Fisher's exact test. p values≤0.05 were considered significant.

neuronal cortical cells = assay: Glutamate toxicity assay on primary cortical neuron cells (neurite network, neurofilament immunostaining); format: cell-based, rat; conditions: for protection against glutamate toxicity, drug alone: torasemide or baclofen alone at the same doses as in the combination of FIG. 4 (400 nM, 2 μM), not significant
Experimental: Rat cortical neurons were cultured as described by Singer et al.. Briefly, pregnant female rats of 15 days gestation were killed by cervical dislocation (Rats Wistar) and the fetuses were removed from the uterus. The cortex was removed and placed in ice-cold medium of Leibovitz (L15) containing 2% of penicillin 10,000 U/mL and streptomycin 10 mg/mL and 1% of bovine serum albumin (BSA). Cortices were dissociated by trypsin for 20 min at 37° C. (0.05%). The reaction was stopped by the addition of Dulbecco's modified Eagle's medium (DMEM) containing DNasel grade II and 10% of foetal calf serum (FCS). Cells were then mechanically dissociated by 3 serial passages through a 10 mL pipette and centrifuged at 515×g for 10 min at +4° C. The supernatant was discarded and the pellet of cells was re-suspended in a defined culture medium consisting of Neurobasal supplemented with B27 (2%), L-glutamine (0.2 mM), 2% of PS solution and 10 ng/mL of BDNF. Viable cells were counted in a Neubauer cytometer using the trypan blue exclusion test. The cells were seeded at a density of 30 000 cells/well in 96 well-plates (wells were pre-coated with poly-L-lysine (10 μg/mL)) and were cultured at +37° C. in a humidified air (95%)/CO2 (5%) atmosphere.
After 12 days of neuron culture, drugs of the candidate combinations were solved in culture medium (+0.1% DMSO). Candidate drugs or drug combinations were then pre-incubated with neurons for 1 h before the glutamate injury. Glutamate was added for 20 min, to a final concentration of 40 μM in presence of candidate drugs or drug combinations. At the end of the incubation, medium was changed with medium with candidate combination but without glutamate. The culture was fixed 24 h after glutamate injury. MK801 (Dizocilpinehydrogen maleate, 77086-22-7-20 μM) was used as a positive control.
After permeabilization with saponin (Sigma), cells were blocked for 2 h with PBS containing 10% goat serum, then the cells were incubated with mouse monoclonal primary antibody against Neurofilament antibody (NF, Sigma).
Nuclei of cells were labeled by a fluorescent marker (Hoechst solution, SIGMA), and neurite network quantified. Six wells per condition were used to assess neuronal survival in 3 different cultures.

[2] = high dose of acamprosate calcium
[3] = low dose of acamprosate calcium
[4] = baclofen 400 nM alone or acamprosate 1.6 nM alone, FIG. 3
[5] = baclofen 2 μM alone or torasemide 400 nM alone, FIG. 4
[6] = cinacalcet 64 μM alone or mexiletine 25.6 μM alone, FIG. 1
[7] = levetiracetam 500 mg/kg 60 min before PTZ
[8] = sulfisoxazole 6.8 nM alone or torasemide 400 nM alone, FIG. 2

## CC(=O)NCCCS(=O)(=O)[O-].CC(=O)NCCCS(=O)(=O)[O-].[Ca+2] [acamprosate calcium]
[1]; acamprosate calcium 0.032 mg/kg, PTZ 100 mg/kg s.c., not shown
  latency to clonic seizure (in words): increase
[1]; acamprosate calcium 0.5 mg/kg per os 2 h before PTZ 100 mg/kg s.c., FIG. 6, p<0.05 vs vehicle
  latency to clonic seizure (in words): significant increase
[1]; acamprosate calcium 0.5 mg/kg per os 2 h before PTZ 100 mg/kg s.c., FIG. 6, p<0.05 vs vehicle, listed as Acamprosate calcium
  latency to clonic seizure (in words): efficient in increasing
[1]; [2]
  reduction of prevalence of death: 38%
  reduction of prevalence of mice with clonic seizure: 30%
  reduction of prevalence of mice with tonic seizure: 38%
[1]; [3]
  reduction of prevalence of death: 25%
  reduction of prevalence of mice with clonic seizure: 20%
  reduction of prevalence of mice with tonic seizure: 25%

## CC(=O)NCCCS(=O)(=O)O [acamprosate, Acamprosate]
Neuronal cortical cells; [4]
  effect on glutamate intoxication, drug alone: no statistically significant effect

## NCC(CC(=O)O)c1ccc(Cl)cc1 (stereo not shown) [baclofen, Baclofen]
Neuronal cortical cells; [4]
  effect on glutamate intoxication, drug alone: no statistically significant effect
Neuronal cortical cells; [5]
  effect on glutamate intoxication, drug alone: no significant results; also recorded: no statistically significant effect
Neuronal cortical cells
  protection against glutamate toxicity, drug alone: 13%

## C[C@@H](NCCCc1cccc(C(F)(F)F)c1)c1cccc2ccccc12 [cinacalcet, Cinacalcet]
Neuronal cortical cells; [6]
  effect on glutamate intoxication, drug alone: no protection at all; also recorded: no significant effect

## CC[C@@H](C(N)=O)N1CCCC1=O [levetiracetam]
[1]; [7]
  PTZ-induced death (in words): reversed
  PTZ-induced tonic seizure (in words): reversed
[1]; levetiracetam 500 mg/kg 60 min before PTZ 100 mg/kg s.c., FIG. 6
  time to clonic seizure (in words): no significant effect

## Cc1cccc(C)c1OCC(C)N (stereo not shown) [mexiletine, Mexiletine]
Neuronal cortical cells; [6]
  effect on glutamate intoxication, drug alone: no protection at all; also recorded: no significant effect

## Cc1noc(NS(=O)(=O)c2ccc(N)cc2)c1C [sulfisoxazole, Sulfisoxazole]
Neuronal cortical cells; [8]
  effect on glutamate intoxication, drug alone: no significant effect

## Cc1cccc(Nc2ccncc2S(=O)(=O)NC(=O)NC(C)C)c1 [torasemide, Torasemide]
Neuronal cortical cells; [5]
  effect on glutamate intoxication, drug alone: no significant results; also recorded: no statistically significant effect
Neuronal cortical cells; [8]
  effect on glutamate intoxication, drug alone: no significant effect
Neuronal cortical cells
  protection against glutamate toxicity, drug alone: 8%
